Measurements taken from patent publication US20240166627A1, “Terpyridinedione compound or salt thereof, and preparation method and application thereof” (SHENZHEN SALUBRIS PHARMACEUTICALS CO., LTD., priority 2021, published 2024).

Key:
[1] = Pharmacokinetic experiment in Beagle dogs (IV and PO); type: in vivo; conditions: male, dog, plasma, PO 5 mg/kg
From the text: Polyethylene glycol 400 (batch number: GORKREUT, Saen Chemical Technology (Shanghai) Co., Ltd.); DMSO (batch number: 20200319, GHTECH (Guangdong) Co., Ltd.); and normal saline (batch number: C20052604, Jiangxi Kelun Pharmaceutical Co., Ltd.). An LC-MS instrument (Thermo Fisher Ultimate 3000 UPLC, TSQ QUANTUM ULTRA TSQ Quantum GC).
5 male Beagle dogs with weights being 5 kg to 7 kg, purchased from Beijing Mars Biotechnology Co., Ltd. […]
After the above mixture is given to the dogs through intragastric administration (n=3) or intravenous administration (n=2), about 1 mL of blood is collected from the forelimb or hindlimb vein with a scalp needle, respectively, at 5 min (intravenous administration only), 15 min, 30 min, 1 h, 2 h, 4 h, 6 h, 8 h, 24 h to put into blood collection tubes containing EDTA-K2 anticoagulant; centrifugation is performed for 10 min at 4000 rpm to separate plasma; and then the tubes are stored at −80° C. for testing.
A certain amount of a test sample is accurately weighted and dissolved with DMSO to 2 mg/mL, as a stock solution. The stock solution is diluted to 30000, 10000, 3000, 1000, 300, 100, 50, 30, and 10 ng/mL by using acetonitrile:water (1:1), to obtain standard curve working solutions. 5 μL of the working solution is added to 45 μL of blank canine plasma; and well mixing is performed through vortex, to prepare into standard curve samples equivalent to plasma concentrations of 3000, 1000, 300, 100, 30, 10, 5, 3, and 1 ng/mL. 30 μL of the standard curve sample and the collected plasma sample (plasma collected at 5 min, 15 min, and 30 min of intravenous administration is diluted 5-fold) are added to 150 μL of a propranolol acetonitrile solution (internal standard, 50 ng/mL) to precipitate protein, then 100 μL of water is added to well mix through vortex; centrifugation is performed for 5 min at 4000 rpm; and supernatant is taken for LC-MS analysis. LC-MS detection conditions include the following.
Chromatographic column: Waters ACQUITY™ PREMIER HSS T3, 50*2.1 mm, 1.8 μm.
Mobile phase A: water (0.1% formic acid); mobile phase B: acetonitrile; flow rate: 0.5 mL/min; and gradient elution is shown in Table 3 below.
After LC-MS detection of blood drug concentration, and a non-compartment model of WinNonlin 6.1 software is adopted to calculate pharmacokinetic parameters of beagle dogs after administration.

p38α = p38α (Homo sapiens, UniProt Q16539); assay: p38α kinase screening experiment (ADP-Glo); type: biochemical
p38α, sequence (Q16539 whole entry): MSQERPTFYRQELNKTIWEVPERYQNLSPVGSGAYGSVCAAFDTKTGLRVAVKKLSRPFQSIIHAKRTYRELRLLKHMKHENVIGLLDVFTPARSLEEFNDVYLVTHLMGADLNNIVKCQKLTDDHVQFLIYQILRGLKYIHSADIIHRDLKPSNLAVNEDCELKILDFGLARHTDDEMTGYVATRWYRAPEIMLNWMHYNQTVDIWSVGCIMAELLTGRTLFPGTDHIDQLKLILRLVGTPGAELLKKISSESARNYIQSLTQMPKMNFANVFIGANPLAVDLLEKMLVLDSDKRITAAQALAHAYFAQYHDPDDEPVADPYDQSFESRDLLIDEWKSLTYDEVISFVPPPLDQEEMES
Experimental: A certain amount of the compound is weighed, prepared into a 10/50 mM mother solution with DMSO, diluted 3 folds with DMSO, and diluted to 10 concentration points as a compound working solution.
50 nL of the diluted compound working solution is transferred to each well of a reaction plate (784075, Greiner) with Echo 655, then 2.5 μL (4 ng/μL) of a p38α kinase solution is added; after 10 minutes at room temperature, 2.5 μL of a mixed solution of a kinase substrate (0.2 mg/mL) and ATP (150 μM) is added, for reaction for 60 min at room temperature; and 4 μL of an ADP Glo reagent is added, for incubation for 40 min at room temperature. 8 μL of a kinase detection reagent is added, for incubation for 40 min at room temperature; and finally a light-emitting signal is read on Envision 2104.

[2] = tested on: production of TNFα in U937; assay: Releasing TNFα from U937 induced by LPS; type: cell-based; conditions: Homo sapiens, U-937; PMA-differentiated U937, LPS 100 ng/ml, 4 h; read-out: IC50 value that the compound inhibits the production of TNFα
In short: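 U937 cells differentiated with PMA (20 ng/ml, 48 h) were pretreated with compound (0.1% DMSO final) for 30 min at 37 °C, then stimulated with LPS (100 ng/ml) for 4 h. Supernatant TNFα was quantified by ELISA against a kit standard curve, and IC50 came from nonlinear fitting.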

Work on `Cc1cnc(-n2cccc(C(C)(C)O)c2=O)cc1-n1c(C)cc(OCc2ncc(F)cc2F)c(Cl)c1=O` [Comparative example 1] yielded an AUC(0-t) [1] of 32900 ng·h/mL, a Cmax [1] of 5550 ng/mL and an IC50 (p38α; ATP 150 μM in the substrate/ATP mix, 60 min, read-out: IC50 value that the compound inhibits p38α) of 578 nM. The “Activity multiple relative to p38α/(p38α/MK2 complex)” value (p38α; ratio of p38α IC50 to p38α/MK2 complex IC50 of Embodiment 50) was 222 and the IC50 [2] was 1.63 nM.
